≈ marks a conversion by molar mass, not a printed value. Where “and” joins values, the source holds several entries; their conditions need not be identical. Equal values may be shown once.
Key:
[1] = system: Mus musculus
[2] = system: Rattus norvegicus; assay: LD0; higher = less toxic; details: acute; oral; gavage
[3] = system: Homo sapiens; details: clinical; oral; Selection of resistant enterobacteriaceae
[4] = system: Rattus norvegicus; details: repeat dose other; oral
[5] = system: Canidae; details: subchronic; duration: 13 weeks; oral; capsule; M/F; Beagle; neurological
[6] = system: Rattus norvegicus; details: chronic; duration: 28 weeks; inhalation; M/F; no effects
[7] = system: Rattus norvegicus; assay: FEL; higher = less toxic; details: short-term; duration: 10 days; inhalation; M/F; inflammation of the nasal passage
[8] = system: Gallus sp.; details: repeat dose other; oral
[9] = system: Oryctolagus sp.
[10] = system: Rattus norvegicus
[11] = system: Canidae; details: chronic; oral; diet; M/F; Dog Other; rbc and plasma cholinesterase inhibition, and testicular and uterine effects
[12] = system: Rattus norvegicus; details: Hershberger; duration: 10 days; oral; gavage; Sprague-Dawley; inactive + Negative + Negative + neither + negative
[13] = system: Canidae; details: chronic; duration: 1 years; oral; diet; Dog Other; Blood: Cholinesterase inhibition + Testis: Effects + Uterus: Effects
[14] = system: Rattus norvegicus; assay: LD40; higher = less toxic; details: acute; oral; gavage; Sprague-Dawley
[15] = system: Oryctolagus sp.; assay: LD0; higher = less toxic; details: acute; dermal; New Zealand
[16] = system: Canidae; details: chronic; duration: 23 weeks; oral; gavage; Beagle
[17] = system: Cricetulus sp.; details: duration: 1 days, injection, Other
[18] = system: Monkey; details: chronic, duration: 18 months
[19] = system: Sus scrofa; details: chronic; duration: 123 days; dermal; Not specified
[20] = system: Rattus norvegicus; assay: LC0; higher = less toxic; details: acute; inhalation; Sprague-Dawley
[21] = acute, oral, gavage, Sprague-Dawley
[22] = subchronic, duration: 30 days, dermal, New Zealand
[23] = chronic, duration: 18 months, oral, gavage, Sprague-Dawley
[24] = subchronic, duration: 13 weeks, inhalation, Sprague-Dawley

**Q.** For FC(F)(Cl)C(F)(F)Cl [1,2-Dichloro-1,1,2,2-tetrafluoroethane], which LC50 ([1]; acute, inhalation) is on record?
**A.** 4.89e+06 mg/m3

**Q.** And the LD0 [2]?
**A.** > 2250 mg/kg

**Q.** Which NOEL [3] does the source give for CN(C)[C@@H]1C(=O)C(C(N)=O)=C(O)[C@@]2(O)C(=O)C3=C(O)c4c(O)cccc4[C@@](C)(O)[C@H]3[C@H](O)[C@@H]12 [Oxytetracycline] here?
**A.** 0.033 mg/kg-day

**Q.** For C=C1C(CCl)(CCl)C2(Cl)C(Cl)C(Cl)C1(Cl)C2(Cl)Cl (stereo not drawn) [Toxaphene], which NOAEL [4] is on record?
**A.** 8 mg/kg-day

**Q.** What about the NOAEL [5] of the same compound?
**A.** 5 mg/kg-day

**Q.** For CCN(CC)CC [Triethylamine], which NOAEL [6] is on record?
**A.** 1020 mg/m3

**Q.** What about the FEL [7] of the same compound?
**A.** 4140 mg/m3

**Q.** For Clc1cc2oc3cc(Cl)c(Cl)cc3c2cc1Cl [2,3,7,8-Tetrachlorodibenzofuran], which LOAEL [8] is on record?
**A.** 1e-05 mg/kg-day

**Q.** And the NOAEL [8]?
**A.** 1e-06 mg/kg-day

**Q.** Which LD50 ([9]; acute, dermal, semiocclusive, New Zealand) does the source give for CNC(=O)Oc1cccc2c1OC(C)(C)C2 [Carbofuran] here?
**A.** < 2000 mg/kg

**Q.** What about the NOAEL ([9]; reproduction developmental, oral, gavage, F, New Zealand) of the same compound?
**A.** ≥ 2 mg/kg-day

**Q.** What about the LC50 ([10]; acute, inhalation, particle, Sprague-Dawley) of the same compound?
**A.** 0.05 µg/mL (≈ 0.226 µM)

**Q.** What about the LD50 ([10]; acute, oral, diet, Sprague-Dawley) of the same compound?
**A.** 5.3 mg/kg and 13.2 mg/kg

**Q.** What about the LD50 [10, 21] of the same compound?
**A.** 7 mg/kg and 8.8 mg/kg and 13.3 mg/kg

**Q.** What about the NOAEL ([10]; developmental, duration: 14 days, oral, diet, Sprague-Dawley) of the same compound?
**A.** 160 ppm

**Q.** And the NOAEL ([10]; reproduction developmental, duration: 14 days, oral, diet, F, Sprague-Dawley)?
**A.** 20 ppm

**Q.** What about the NOAEL ([10]; reproduction developmental, oral, diet, Crl:CD(SD)) of the same compound?
**A.** 20 ppm

**Q.** What about the LEL [11] of the same compound?
**A.** 12.5 mg/kg-day

**Q.** What about the NOEL [11] of the same compound?
**A.** 0.5 mg/kg-day

**Q.** And the NOEL [12]?
**A.** 0.3 mg/kg-day

**Q.** What about the NOEL [13] of the same compound?
**A.** 0.5 mg/kg-day

**Q.** What about the LD40 [14] of the same compound?
**A.** 5.6 mg/kg

**Q.** CC12C=CC(C1)C1C(=O)OC(=O)C12 (stereo not drawn) [1,2,3,6-Tetrahydromethyl-3,6-methanophthalic anhydride] was tested. Which LD50 ([10]; acute, dermal) did it give?
**A.** 4920 mg/kg and ≥ 3670 mg/kg and ≤ 6590 mg/kg

**Q.** What about the LD50 ([10]; acute, oral) of the same compound?
**A.** 914 mg/kg

**Q.** And the LD50 [10, 21]?
**A.** 958 mg/kg and ≥ 856 mg/kg and ≤ 1080 mg/kg

**Q.** What about the LD0 [15] of the same compound?
**A.** > 2000 mg/kg

**Q.** What does the source list for CS(C)=O [Dimethyl sulfoxide]?
**A.** LOAEL [16]: 2500 mg/kg-day; NOAEL ([17]; developmental, Intraperitoneal): < 5500 mg/kg-day; NOAEL ([17]; developmental, intravenous, intraperitoneal): 2500 mg/kg-day; NOAEL ([17]; reproduction developmental, Intraperitoneal, F): < 5500 mg/kg-day; NOAEL ([17]; reproduction developmental, intravenous, intraperitoneal, F): 2500 mg/kg-day; NOAEL ([18]; dermal): 8910 mg/kg-day; LOAEL ([18]; oral, gavage): 8910 mg/kg-day; NOAEL ([18]; oral, gavage): 2970 mg/kg-day; LD50 ([1]; acute, dermal): 50000 mg/kg; LD50 ([1]; acute, injection, intravenous): 3100 mg/kg and 5750 mg/kg; LD50 ([1]; acute, oral): ≥ 19200 mg/kg and ≤ 22000 mg/kg; NOAEL ([1]; developmental, duration: 7 days, oral, gavage, Swiss): 12000 mg/kg-day; LOAEL ([1]; short-term, duration: 3 weeks, oral, gavage, Swiss): 2000 mg/kg-day; NOAEL ([1]; subchronic, duration: 5 weeks, injection, Intraperitoneal, Swiss): 2500 mg/kg-day; LOAEL ([9]; chronic, duration: 6 months, dermal, New Zealand): 1650 mg/kg-day; LOAEL ([9]; chronic, duration: 22 weeks, dermal, New Zealand): 1650 mg/kg-day; NOAEL ([9]; developmental, duration: 9 days, injection, subcutaneous): 4000 mg/kg-day; NOAEL ([9]; developmental, duration: 9 days, oral, gavage): 5000 mg/kg-day; NOAEL ([9]; developmental, injection, subcutaneous): 4000 mg/kg-day; LOAEL [9, 22]: 5000 mg/kg-day; NOAEL [9, 22]: 1000 mg/kg-day; NOAEL ([9]; subchronic, duration: 90 days, dermal, New Zealand): 2200 mg/kg-day; LD50 ([10]; acute, dermal): 40000 mg/kg; LD50 ([10]; acute, injection, intravenous): 5360 mg/kg; LD50 ([10]; acute, oral, gavage): 28300 mg/kg; LOAEL [10, 23]: 9900 mg/kg-day; NOAEL [10, 23]: 1100 mg/kg-day; NOAEL ([10]; developmental, duration: 1 days, injection, subcutaneous, Sprague-Dawley): < 10200 mg/kg-day; NOAEL ([10]; reproduction developmental, duration: 6 days, oral, gavage, Wistar, generation: F1): 10000 mg/kg-day; NOAEL ([10]; reproduction developmental, duration: 10 days, injection, Intraperitoneal, F): < 2000 mg/kg-day; NOAEL ([10]; reproduction developmental, oral, gavage, Sprague-Dawley, generation: F0): 5000 mg/kg-day; NOAEL ([10]; reproduction developmental, oral, gavage, Sprague-Dawley, generation: F1): 5000 mg/kg-day; NOAEC ([10]; subchronic, duration: 6 weeks, inhalation, Sprague-Dawley): 0.2 mg/L; LOAEC [10, 24]: 2.78 mg/L; NOAEC [10, 24]: 0.964 mg/L; NOAEL [19]: 825 mg/kg-day; LC0 [20]: > 2.9 mg/L
